In patent US20230278972A1, “SUBSTITUTED HALOALKYL SULFONANILIDE HERBICIDES” (FMC Corporation, priority 2020, published 2023):

What was measured:
Assay type in all cases: in vivo
[1] = tested on: barnyardgrass (Echinochloa crus-galli); assay: Test A preemergence, barnyardgrass; conditions: Preemergence; for Plant response rating, Barnyardgrass: 0 to 100 scale (0 no effect, 100 complete control); for Barnyardgrass plant response rating: visual injury on 0 to 100 scale (0 no effect, 100 complete control), approximately 10 days
Description: (§1) Seeds of plant species selected from barnyardgrass (Echinochloa crus-galli), kochia (Bassia scoparia), ragweed (common ragweed, Ambrosia artemisiifolia), Ryegrass, Italian (Italian ryegrass, Lolium multiflorum), Foxtail, Giant (giant foxtail, Setaria faberi), and pigweed (Amaranthus retroflexus) were planted into a blend of loam soil and sand and treated preemergence with a directed soil spray using test chemicals formulated in a non-phytotoxic solvent mixture which included a surfactant. At the same time, plants selected from these weed species and also wheat (Triticum aestivum), corn (Zea mays), blackgrass (Alopecurus myosuroides), and galium (catchweed bedstraw, Galium aparine) were planted in pots containing the same blend of loam soil and sand and treated with postemergence applications of test chemicals formulated in the same manner. Plants ranged in height from 2 to 10 cm and were in the one- to two-leaf stage for the postemergence treatment. […] A dash (-) response means no test result.

kochia (Bassia scoparia) [2] = assay: Test A preemergence, kochia; conditions: Preemergence; for Plant response rating, Kochia: 0 to 100 scale (0 no effect, 100 complete control); for Kochia plant response rating: visual injury on 0 to 100 scale (0 no effect, 100 complete control), approximately 10 days
Description: as §1

[3] = tested on: ragweed (common ragweed, Ambrosia artemisiifolia); assay: Test A preemergence, ragweed; conditions: Preemergence; for Plant response rating, Ragweed: 0 to 100 scale (0 no effect, 100 complete control); for Ragweed plant response rating: visual injury on 0 to 100 scale (0 no effect, 100 complete control), approximately 10 days
Description: as §1

[4] = tested on: Ryegrass, Italian (Italian ryegrass, Lolium multiflorum); assay: Test A preemergence, Ryegrass, Italian; conditions: Preemergence; for Plant response rating, Ryegrass, Italian: 0 to 100 scale (0 no effect, 100 complete control); for Ryegrass, Italian plant response rating: visual injury on 0 to 100 scale (0 no effect, 100 complete control), approximately 10 days
Description: as §1

[5] = tested on: Foxtail, Giant (giant foxtail, Setaria faberi); assay: Test A preemergence, Foxtail, Giant; conditions: Preemergence; for Plant response rating, Foxtail, Giant: 0 to 100 scale (0 no effect, 100 complete control); for Foxtail, Giant plant response rating: visual injury on 0 to 100 scale (0 no effect, 100 complete control), approximately 10 days
Description: as §1

[6] = tested on: barnyardgrass (Echinochloa crus-galli); assay: Test A postemergence, barnyardgrass; conditions: Postemergence, 0 to 100 scale (0 no effect, 100 complete control); for Barnyardgrass plant response rating: visual injury vs untreated controls after approx. 10 days
Description: as §1

kochia (Bassia scoparia) [7] = assay: Test A postemergence, kochia; conditions: Postemergence, 0 to 100 scale (0 no effect, 100 complete control); for Kochia plant response rating: visual injury vs untreated controls after approx. 10 days
Description: as §1

[8] = tested on: ragweed (common ragweed, Ambrosia artemisiifolia); assay: Test A postemergence, ragweed; conditions: Postemergence, 0 to 100 scale (0 no effect, 100 complete control); for Ragweed plant response rating: visual injury vs untreated controls after approx. 10 days
Description: as §1

[9] = tested on: Ryegrass, Italian (Italian ryegrass, Lolium multiflorum); assay: Test A postemergence, Ryegrass, Italian; conditions: Postemergence, 0 to 100 scale (0 no effect, 100 complete control); for Ryegrass, Italian plant response rating: visual injury vs untreated controls after approx. 10 days
Description: as §1

[10] = tested on: Foxtail, Giant (giant foxtail, Setaria faberi); assay: Test A postemergence, Foxtail, Giant; conditions: Postemergence, 0 to 100 scale (0 no effect, 100 complete control); for Foxtail, Giant plant response rating: visual injury vs untreated controls after approx. 10 days
Description: as §1

[11] = tested on: pigweed (Amaranthus retroflexus); assay: Test A postemergence, pigweed; conditions: Postemergence, 0 to 100 scale (0 no effect, 100 complete control); for Pigweed plant response rating: visual injury vs untreated controls after approx. 10 days
Description: as §1

[12] = tested on: wheat (Triticum aestivum); assay: Test A postemergence, wheat; conditions: Postemergence, 0 to 100 scale (0 no effect, 100 complete control); for Wheat plant response rating: visual injury vs untreated controls after approx. 10 days
Description: as §1

corn (Zea mays) = assay: Test A postemergence, corn; conditions: Postemergence, 0 to 100 scale (0 no effect, 100 complete control); for Corn plant response rating: visual injury vs untreated controls after approx. 10 days
Description: as §1

[13] = tested on: blackgrass (Alopecurus myosuroides); assay: Test A postemergence, blackgrass; conditions: Postemergence, 0 to 100 scale (0 no effect, 100 complete control); for Blackgrass plant response rating: visual injury vs untreated controls after approx. 10 days
Description: as §1

[14] = tested on: galium (catchweed bedstraw, Galium aparine); assay: Test A postemergence, galium; conditions: Postemergence, 0 to 100 scale (0 no effect, 100 complete control); for Galium plant response rating: visual injury vs untreated controls after approx. 10 days
Description: as §1

[15] = 125 g ai/ha, visual injury, approx. 10 days
[16] = 500 g ai/ha, visual injury approx. 10 days
[17] = 125 g ai/ha, visual injury approx. 10 days

Cc1cc(C)c(N(S(=O)(=O)C(F)(F)F)S(=O)(=O)C(F)(F)F)cc1N1CC2(CCCCC2)OC1=O [Compound 269]
20: Plant response rating, Barnyardgrass [6, 16] | Plant response rating, Ryegrass, Italian [9, 16] | Plant response rating, Wheat [12, 16] | Plant response rating, Blackgrass ([13]; 125 g ai/ha) | Plant response rating, Blackgrass [13, 16]
40: Plant response rating, Ragweed ([8]; 125 g ai/ha)
80: Plant response rating, Ragweed [3, 15] | Plant response rating, Ryegrass, Italian [4, 15]
90: Ragweed plant response rating ([3]; 500 g ai/ha) | Plant response rating, Ragweed [8, 16] | Plant response rating, Galium [14, 16]
0: Plant response rating, Barnyardgrass ([6]; 125 g ai/ha) | Plant response rating, Ryegrass, Italian ([9]; 125 g ai/ha) | Plant response rating, Foxtail, Giant ([10]; 125 g ai/ha) | Plant response rating, Foxtail, Giant [10, 16] | Plant response rating, Wheat ([12]; 125 g ai/ha) | Plant response rating, Corn (corn (Zea mays); 125 g ai/ha)
100: Plant response rating, Barnyardgrass [1, 15] | Barnyardgrass plant response rating ([1]; 500 g ai/ha) | Kochia plant response rating (kochia (Bassia scoparia) [2]; 500 g ai/ha) | Ryegrass, Italian plant response rating ([4]; 500 g ai/ha) | Plant response rating, Foxtail, Giant [5, 15] | Foxtail, Giant plant response rating ([5]; 500 g ai/ha)
10: Plant response rating, Corn (corn (Zea mays); [16])
30: Plant response rating, Kochia (kochia (Bassia scoparia) [7]; 125 g ai/ha) | Plant response rating, Pigweed ([11]; 125 g ai/ha)
70: Plant response rating, Kochia (kochia (Bassia scoparia) [2]; [15]) | Plant response rating, Pigweed [11, 16] | Plant response rating, Galium ([14]; 125 g ai/ha)
50: Plant response rating, Kochia (kochia (Bassia scoparia) [7]; [16])

Cc1cc(C)c(N(S(=O)(=O)C(F)(F)F)S(=O)(=O)C(F)(F)F)cc1C1=NOC2(CCSCC2)C1 [Compound 114]
0: Ragweed plant response rating ([3]; 125 g ai/ha) | Plant response rating, Ragweed [8, 17]
100: Plant response rating, Foxtail, Giant ([5]; 500 g ai/ha)
30: Kochia plant response rating (kochia (Bassia scoparia) [2]; 125 g ai/ha) | Ragweed plant response rating ([8]; 500 g ai/ha) | Plant response rating, Blackgrass [13, 17]
10: Plant response rating, Ragweed ([3]; 500 g ai/ha) | Plant response rating, Kochia (kochia (Bassia scoparia) [7]; [17])
50: Barnyardgrass plant response rating ([1]; 125 g ai/ha) | Plant response rating, Foxtail, Giant [10, 17] | Corn plant response rating (corn (Zea mays); 500 g ai/ha) | Blackgrass plant response rating ([13]; 500 g ai/ha)
60: Plant response rating, Pigweed [11, 17] | Plant response rating, Wheat [12, 17] | Wheat plant response rating ([12]; 500 g ai/ha)
40: Kochia plant response rating (kochia (Bassia scoparia) [7]; 500 g ai/ha) | Plant response rating, Ryegrass, Italian [9, 17] | Ryegrass, Italian plant response rating ([9]; 500 g ai/ha)
70: Plant response rating, Kochia (kochia (Bassia scoparia) [2]; 500 g ai/ha) | Ryegrass, Italian plant response rating ([4]; 125 g ai/ha) | Barnyardgrass plant response rating ([6]; 500 g ai/ha)
80: Plant response rating, Barnyardgrass ([1]; 500 g ai/ha) | Foxtail, Giant plant response rating ([10]; 500 g ai/ha) | Pigweed plant response rating ([11]; 500 g ai/ha)
90: Plant response rating, Ryegrass, Italian ([4]; 500 g ai/ha) | Foxtail, Giant plant response rating ([5]; 125 g ai/ha) | Plant response rating, Galium [14, 17] | Galium plant response rating ([14]; 500 g ai/ha)
20: Plant response rating, Barnyardgrass [6, 17] | Plant response rating, Corn (corn (Zea mays); [17])

C#CCN(C)C(=O)c1cc(N(S(=O)(=O)C(F)(F)F)S(=O)(=O)C(F)(F)F)c(C)c(F)c1C [Compound 147]
50: Plant response rating, Kochia (kochia (Bassia scoparia) [7]; 125 g ai/ha)
30: Plant response rating, Ryegrass, Italian ([9]; 125 g ai/ha) | Plant response rating, Wheat ([12]; 125 g ai/ha) | Blackgrass plant response rating ([13]; 500 g ai/ha)
70: Kochia plant response rating (kochia (Bassia scoparia) [2]; 125 g ai/ha) | Kochia plant response rating (kochia (Bassia scoparia) [7]; 500 g ai/ha) | Ryegrass, Italian plant response rating ([9]; 500 g ai/ha) | Plant response rating, Foxtail, Giant ([10]; 125 g ai/ha) | Plant response rating, Pigweed ([11]; 125 g ai/ha)
80: Corn plant response rating (corn (Zea mays); 500 g ai/ha) | Plant response rating, Galium ([14]; 125 g ai/ha)
60: Wheat plant response rating ([12]; 500 g ai/ha)
100: Plant response rating, Barnyardgrass ([1]; 500 g ai/ha) | Plant response rating, Ryegrass, Italian ([4]; 500 g ai/ha) | Plant response rating, Foxtail, Giant ([5]; 500 g ai/ha)
10: Plant response rating, Corn (corn (Zea mays); 125 g ai/ha)
90: Barnyardgrass plant response rating ([1]; 125 g ai/ha) | Plant response rating, Kochia (kochia (Bassia scoparia) [2]; 500 g ai/ha) | Ragweed plant response rating ([3]; 125 g ai/ha) | Plant response rating, Ragweed ([3]; 500 g ai/ha) | Ryegrass, Italian plant response rating ([4]; 125 g ai/ha) | Foxtail, Giant plant response rating ([5]; 125 g ai/ha) | Plant response rating, Barnyardgrass ([6]; 125 g ai/ha) | Barnyardgrass plant response rating ([6]; 500 g ai/ha) | Plant response rating, Ragweed ([8]; 125 g ai/ha) | Ragweed plant response rating ([8]; 500 g ai/ha) | Foxtail, Giant plant response rating ([10]; 500 g ai/ha) | Pigweed plant response rating ([11]; 500 g ai/ha) | Galium plant response rating ([14]; 500 g ai/ha)
0: Plant response rating, Blackgrass ([13]; 125 g ai/ha)
